In ChEMBL document CHEMBL5316353, “Antitarget, Anti-SARS-CoV-2 Leads, Drugs, and the Drug Discovery-Genetics Alliance Perspective” (J Med Chem, 2023):
pEC50, pIC50, pKi: −log10 of the molar value. Square brackets hold non-standard residues; d marks the D form. Peptide text beside a SMILES is read from it. βAla = NCCC(=O)O

Legend:
SARS-CoV-2 [1] = type: functional, organism-based; details: Severe acute respiratory syndrome coronavirus 2
SARS-CoV [2] = experiment: Antiviral activity against SARS-CoV-1 infected in HAE cells assessed as inhibition of viral replication; type: functional, organism-based; details: Severe acute respiratory syndrome-related coronavirus
[3] = Cytotoxicity in African green monkey Vero cells by MTT assay; type: toxicity, cell-based; details: chlorocebus sabaeus
Human coronavirus OC43 = experiment: Antiviral activity against HCoV-OC43 infected in human Huh-7 cells assessed as reduction of viral growth; type: functional, organism-based; details: Betacoronavirus 1, Huh-7
SARS-CoV-2 [4] = experiment: microbe, parasite or virus in culture; details: Severe acute respiratory syndrome coronavirus 2
[5] = system: Middle East respiratory syndrome-related coronavirus; experiment: Antiviral activity against MERS-CoV assessed as inhibition of viral growth by cell-cell fusion assay; type: functional, organism-based
[6] = system: Middle East respiratory syndrome-related coronavirus; type: functional, organism-based, Vero E6; details: Vero C1008
Human coronavirus 229E = experiment: microbe, parasite or virus in culture; details: MRC5
SARS-CoV [7] = type: functional, organism-based, Vero E6; details: Severe acute respiratory syndrome-related coronavirus, Vero C1008
[8] = Inhibition of MERS-CoV MPro; design: species or system Middle East respiratory syndrome-related coronavirus
[9] = Binding affinity to HCoV-NL63 MPro assessed as inhibition constant; design: species or system Human coronavirus NL63
[10] = biological target: Replicase polyprotein 1ab (Severe acute respiratory syndrome coronavirus 2, UniProt P0DTD1); experiment: Inhibition of SARS-CoV-2 MPro
SARS-CoV-2 [11] = experiment: microbe, parasite or virus in culture; details: Severe acute respiratory syndrome coronavirus 2; remark: listed apart in the source
Procathepsin L = Procathepsin L (Homo sapiens, UniProt P07711); experiment: Inhibition of recombinant cathepsin L (unknown origin)
SARS-CoV-2 [12] = experiment: Antiviral activity against SARS-CoV-2 Omicron assessed as reduction of viral growth; type: functional, organism-based; details: Severe acute respiratory syndrome coronavirus 2, Omicron
SARS-CoV-2 [13] = experiment: Antiviral activity against SARS-CoV-2 Beta assessed as reduction of viral growth; type: functional, organism-based; details: Severe acute respiratory syndrome coronavirus 2, Beta
SARS-CoV-2 [14] = experiment: Antiviral activity against SARS-CoV-2 Delta assessed as reduction of viral growth; type: functional, organism-based; details: Severe acute respiratory syndrome coronavirus 2, Delta
SARS-CoV-2 [15] = experiment: Antiviral activity against SARS-CoV-2 Gamma assessed as reduction of viral growth; type: functional, organism-based; details: Severe acute respiratory syndrome coronavirus 2, Gamma
SARS-CoV-2 [16] = experiment: Antiviral activity against SARS Cov-2 pseudovirions assessed as inhibition of viral entry into 293/hACE2 cells at 2 uM relative to control; type: functional, Severe acute respiratory syndrome coronavirus 2, 293T/ACE2; design: scale not given: the % may be the effect or the level left
[17] = Inhibition of HCoV-229E MPro; design: species or system Human coronavirus 229E
[18] = biological target: Replicase polyprotein 1ab (Severe acute respiratory syndrome-related coronavirus, UniProt P0C6X7); experiment: Binding affinity to SARS-CoV-1 MPro assessed as inhibition constant
[19] = biological target: Transmembrane protease serine 2 (Homo sapiens) (UniProt O15393); experiment: Binding affinity to TMPRSS2 (unknown origin) assessed as inhibition constant by fluorescence-based assay
[20] = system: Middle East respiratory syndrome-related coronavirus; experiment: Antiviral activity against MERS-CoV infected in human Huh-7 cells assessed as reduction of viral growth; type: functional, organism-based

Procathepsin L, sequence (P07711 whole entry): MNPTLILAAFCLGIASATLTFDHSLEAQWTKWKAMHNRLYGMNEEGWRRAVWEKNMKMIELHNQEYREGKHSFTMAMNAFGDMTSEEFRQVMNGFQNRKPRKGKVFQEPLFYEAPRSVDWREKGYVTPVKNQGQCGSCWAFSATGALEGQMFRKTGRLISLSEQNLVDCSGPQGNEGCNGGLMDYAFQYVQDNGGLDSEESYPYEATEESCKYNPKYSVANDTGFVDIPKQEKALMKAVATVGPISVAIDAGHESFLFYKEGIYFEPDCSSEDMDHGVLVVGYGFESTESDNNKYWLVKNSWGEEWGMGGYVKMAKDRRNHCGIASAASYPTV
Transmembrane protease serine 2 (Homo sapiens), sequence (O15393 1-255 limits assumed): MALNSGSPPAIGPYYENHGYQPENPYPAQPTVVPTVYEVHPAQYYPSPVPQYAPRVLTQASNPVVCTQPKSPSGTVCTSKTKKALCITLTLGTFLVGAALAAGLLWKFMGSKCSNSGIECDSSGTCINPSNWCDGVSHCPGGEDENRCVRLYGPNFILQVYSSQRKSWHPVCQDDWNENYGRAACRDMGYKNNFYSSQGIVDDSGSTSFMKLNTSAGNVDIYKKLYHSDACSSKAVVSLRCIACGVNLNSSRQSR
Transmembrane protease serine 2 (Homo sapiens), sequence (O15393 256-492 limits assumed): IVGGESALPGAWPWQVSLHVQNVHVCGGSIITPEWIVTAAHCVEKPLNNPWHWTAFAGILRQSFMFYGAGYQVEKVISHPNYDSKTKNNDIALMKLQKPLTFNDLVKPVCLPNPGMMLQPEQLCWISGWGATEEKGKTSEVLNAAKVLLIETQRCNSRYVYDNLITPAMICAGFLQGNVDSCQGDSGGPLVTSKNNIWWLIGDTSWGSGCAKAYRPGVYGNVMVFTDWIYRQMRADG

## NC1(C(=O)N[C@@H](CCO)c2ccc(Cl)cc2)CCN(c2nc[nH]c3nccc2-3)CC1 [CAPIVASERTIB]
SARS-CoV-2 [1]
  pIC50: 5.63

## CCC(CC)COC(=O)[C@H](C)NP(=O)(OC[C@@H]1O[C@](C#N)(c2ccc3c(N)ncnn23)[C@@H](O)[C@H]1O)Oc1ccccc1 (some centres undefined)
SARS-CoV [2]
  pIC50: 7.16
[3]
  CC50: > 100000 nM

## COc1cccc2[nH]c(C(=O)N[C@@H](CC(C)C)C(=O)N[C@@H](C[C@@H]3CCCNC3=O)C(=O)COC(=O)c3c(C)cc(C)nc3C)cc12
Human coronavirus OC43
  pEC50: 7.05

## CC(=O)N[C@@H]1[C@H](Oc2c3cc4cc2Oc2ccc(cc2Cl)[C@@H](O[C@@H]2O[C@@H](CO)[C@@H](O)[C@H](O)[C@@H]2NC(C)=O)[C@@H]2NC(=O)[C@H](NC(=O)[C@@H]4NC(=O)[C@H]4NC(=O)[C@@H](Cc5ccc(c(Cl)c5)O3)NC(=O)[C@H](N)c3ccc(O)c(c3)Oc3cc(O)cc4c3)c3ccc(O)c(c3)-c3c(O[C@H]4O[C@H](CO)[C@@H](O)[C@@H](O)[C@@H]4O)cc(O)cc3[C@@H](C(=O)O)NC2=O)O[C@@H](CO)[C@@H](O)[C@@H]1O
SARS-CoV-2 [4]
  pIC50: 5.80

## CC[C@H](C)[C@H](NC(=O)[C@H](Cc1ccc(O)cc1)NC(=O)[C@H](CO)NC(=O)[C@H](CCC(=O)O)NC(=O)[C@H](CC(N)=O)NC(=O)[C@H](CC(C)C)NC(=O)[C@H](C)NC(=O)[C@H](CCCCN)NC(=O)[C@@H](NC(=O)[C@@H](NC(=O)[C@H](CCC(N)=O)NC(=O)[C@H](CCC(N)=O)NC(=O)[C@H](CC(C)C)NC(=O)[C@H](CO)NC(=O)[C@H](CC(C)C)NC(=O)[C@H](CCSC)NC(=O)[C@H](CCC(=O)O)NC(=O)[C@H](Cc1ccc(O)cc1)NC(=O)[C@@H](NC(=O)[C@H](CC(C)C)NC(=O)[C@H](CC(=O)O)NC(=O)[C@H](CC(C)C)NC(=O)[C@H](CC(C)C)NC(=O)[C@@H](NC(=O)[C@@H](NC(=O)[C@H](CC(N)=O)NC(=O)[C@@H](NC(=O)[C@H](CCC(N)=O)NC(=O)[C@@H](NC(=O)[C@H](CC(C)C)NC(=O)[C@@H](N)CO)[C@@H](C)O)[C@@H](C)CC)[C@@H](C)O)[C@@H](C)O)[C@@H](C)O)C(C)C)C(C)C)C(=O)N[C@@H](CC(=O)O)C(=O)N[C@@H](CC(C)C)C(=O)N[C@@H](CCCCN)C(=O)N[C@@H](CCCCN)C(=O)N[C@@H](CCC(=O)O)C(=O)N[C@@H](CC(C)C)C(=O)O
[5]
  pIC50: 6.30
[6]
  pIC50: 6.22

## C[C@@H](OC(C)(C)C)[C@H](NC(=O)OCc1ccccc1)C(=O)N[C@@H](CC1CCCCC1)C(=O)N[C@H](C=O)C[C@@H]1CCNC1=O
Human coronavirus 229E
  pIC50: 6.85
SARS-CoV [7]
  pIC50: 6.22

## CC(C)(C)OC(=O)Nc1cccn([C@@H](CC2CC2)C(=O)N[C@@H](C[C@@H]2CCNC2=O)C(=O)C(=O)NCc2ccccc2)c1=O
[8]
  pIC50: 6.24

## Cc1cc(C(=O)N[C@@H](C)C(=O)N[C@H](C(=O)N[C@@H](CC(C)C)C(=O)N[C@H](/C=C/C(=O)OCc2ccccc2)C[C@@H]2CCNC2=O)C(C)C)no1
[9]
  pKi: 4.95
Human coronavirus 229E
  pIC50: 6.85

## O=C[C@H](C[C@@H]1CCNC1=O)NC(=O)[C@H](Cc1ccccc1)NC(=O)c1cc2ccccc2[nH]1
[10]
  pIC50: 7.47

## CN(C)C(=O)COC(=O)Cc1ccc(OC(=O)c2ccc(NC(=N)N)cc2)cc1 [CAMOSTAT]
SARS-CoV-2 [11]
  pEC50: 6.15

## CCOC(=O)[C@H]1OC1C(=O)N[C@@H](CC(C)C)C(=O)NCCC(C)C (some centres undefined)
Procathepsin L
  pIC50: 6.74

## COc1ccc(C(=O)Nc2cccc(C(F)(F)F)c2)cc1Nc1nc(-c2cccnc2)c2[nH]ccc2n1
SARS-CoV-2 [12]
  pEC50: > 8.16
SARS-CoV-2 [13]
  pEC50: 7.91
SARS-CoV-2 [14]
  pEC50: > 8.16
SARS-CoV-2 [15]
  pEC50: > 8.16

## CCc1ccccc1NC(=O)CSC(=O)NNC(=O)[C@H](Cc1c[nH]c2ccccc12)NC(=O)OC(C)(C)C
SARS-CoV-2 [16]
  Activity: ~76%

## COc1cccc2[nH]c(C(=O)N[C@@H](CC(C)C)C(=O)N[C@@H](C[C@@H]3CCNC3=O)C(=O)CO)cc12 [PF-00835231]
[17]
  pIC50: 8.40
[18]
  pKi: 8.31

## N=C(N)c1cccc(C[C@H](NS(=O)(=O)c2cccc(-c3ccc(Cl)cc3Cl)c2)C(=O)N2CCC(CCN)CC2)c1
[19]
  K: 0.9 nM

## CC(C)C[C@H](NC(=O)[C@H](CCC(=O)O)NC(=O)[C@H](CCC(=O)O)NC(=O)[C@H](CC(C)C)NC(=O)[C@H](CCCCN)NC(=O)[C@H](CCCCN)NC(=O)[C@H](CO)NC(=O)[C@H](CC(C)C)NC(=O)[C@H](CCC(=O)O)NC(=O)[C@H](CCC(=O)O)NC(=O)[C@H](CC(C)C)NC(=O)[C@H](CCCCN)NC(=O)[C@H](CCCCN)NC(=O)[C@H](CO)NC(=O)[C@H](CC(C)C)NC(=O)[C@H](CCC(=O)O)NC(=O)[C@H](CCC(=O)O)NC(=O)[C@H](CC(C)C)NC(=O)[C@H](CCCCN)NC(=O)[C@H](CCCCN)NC(=O)[C@H](CO)NC(=O)[C@H](CC(C)C)NC(=O)[C@H](CCC(=O)O)NC(=O)[C@H](CCC(=O)O)NC(=O)[C@H](CC(C)C)NC(=O)[C@H](CCCCN)NC(=O)[C@H](CCCCN)NC(=O)[C@H](CO)NC(=O)[C@H](CC(C)C)NC(=O)[C@H](CCC(=O)O)NC(=O)[C@H](CCC(=O)O)NC(=O)[C@@H](N)CC(C)C)C(=O)N[C@@H](CO)C(=O)N[C@@H](CCCCN)C(=O)N[C@@H](CCCCN)C(=O)NCCC(=O)N[C@@H](CCCCN)C(=O)O (H-LEELSKKLEELSKKLEELSKKLEELSKKLEELSKK[βAla]K-OH)
[20]
  pEC50: 6.62
